In US10591461B2, “Method of drug design and optimisation utilizing stereochemical mimicry” (The Trustees of the University of Pennsylvania, priority 2016, dated 2020):
Ends that are not written are not given here.

What was measured:
[1] = test system: neuro-2a cells; experiment: Confocal microscopy imaging of neuronal cells (neurite outgrowth, qualitative); format: cell-based, Mouse; settings: for number of projections (increase from no treatment): confocal images, FIG. 7
Method: (§1) Once the three compounds were synthesized the neurite outgrowth assay was used in order to determine the effectiveness of the aza-proline derivatives in comparison with the Glyx-13. Mouse neuroblastoma cells (Neuro-2a cells) were used in order to measure the increase in neurite growth between untreated cells and those treated with the test compounds. A plate reader assay was used where 9,000 cells/cm^2 were treated with the compounds at 0.01, 0.10, and 1.00 μM concentrations for 48 hours. Several controls were used as well, including wells with no cell and compound, cells with no compound (just water), and wells with no cells and water. After treatment with the compounds, the cells were washed in DPBS buffer and treated with cell viability indicator and a membrane stain for 20 minutes before being washed again and treated with a background suppression dye. The plate reader assay was inconclusive for some of the concentrations of the compounds, but the 0.10 μM data is promising. (FIG. 6)

[2] = test system: Mouse neuroblastoma cells (Neuro-2a cells); format: cell-based; settings: 0.10 μM, 48 hours, vs untreated cells; FIG. 6; preliminary data
Method: as §1

## C[C@@H](O)[C@H](N)C(=O)N1CCCN1C(=O)N1CCC[C@H]1C(=O)N[C@H](C(N)=O)[C@@H](C)O [Glyx-1]
[1]
  number of projections (increase from no treatment): even more noticeable

## C[C@@H](O)[C@H](N)C(=O)N1CCC[C@H]1C(=O)N1CCCN1C(=O)N[C@H](C(N)=O)[C@@H](C)O [Glyx-2]
[1]
  number of projections (increase from no treatment): even more noticeable
[1]; confocal microscope data
  effectiveness compared with control compound Glyx-13 (neuronal projections and dendrite length): significantly more effective
[2]
  size of the neurites (membrane stain): significant increase

## Thr-Pro-Pro-Thr-NH2 (TPPT-NH2) [Glyx-13, tetrapeptide, parent and control compound, NMDA receptor glycine-site partial agonist, reference compound]
[1]
  number of projections (increase from no treatment): significant increase
